The values below are quoted from earlier work in patent US10391176B2, “Composition, its preparation and method of use in treating skin disorders” (priority 2016, dated 2019).

For the compound `COc1cc(C(=O)NS(=O)(=O)c2ccccc2C)ccc1Cc1cn(C)c2ccc(NC(=O)OC3CCCC3)cc12` [Zafirlukast, 4-(5-cyclopentyloxy-carbonylamino-1-methyl-indol-3-ylmethyl)-3-methoxy-N-o-tolylsulfonylbenzamide], the solubility in acetone entry (acetone) was “freely soluble”. Also, the solubility in dimethylsulfoxide entry (dimethylsulfoxide) is given as “freely soluble”. For the setting “methanol”, the solubility in methanol result is given as “slightly soluble”. Where the note is “tetrahydrofuran”, the solubility in tetrahydrofuran result is on record as “freely soluble”. In addition, the solubility in water result (water) was “practically insoluble”.
